From PMC3956373, “Suppression of type 1 pilus assembly in uropathogenic Escherichia coli by chemical inhibition of subunit polymerization” (Journal of Antimicrobial Chemotherapy, 2013) come the findings set out here.

This test has as its target T1, FimH (Escherichia coli, UniProt P08191).
T1 construct: with FimC (C-terminal His tag); FimG Nte peptide in the assay
Kind of test: SDS-PAGE donor strand exchange assay with purified FimChis:FimH ([…]) and FimG Nte peptide ([…]), concentration-response. Format: biochemical.

As usually defined, the IC50 is the concentration that inhibits the measured activity by half.

SMILES strings stand for the structures.

T1 sequence (P08191 22-300): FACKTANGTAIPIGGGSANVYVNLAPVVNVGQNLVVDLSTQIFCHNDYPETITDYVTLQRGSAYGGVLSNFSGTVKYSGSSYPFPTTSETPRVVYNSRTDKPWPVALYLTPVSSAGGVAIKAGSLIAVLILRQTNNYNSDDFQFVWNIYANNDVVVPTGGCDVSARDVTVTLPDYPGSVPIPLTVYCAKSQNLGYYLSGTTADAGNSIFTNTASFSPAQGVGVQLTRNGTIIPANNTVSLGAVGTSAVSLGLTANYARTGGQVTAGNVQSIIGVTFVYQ
T1 sequence (P31697 37-241, further chain): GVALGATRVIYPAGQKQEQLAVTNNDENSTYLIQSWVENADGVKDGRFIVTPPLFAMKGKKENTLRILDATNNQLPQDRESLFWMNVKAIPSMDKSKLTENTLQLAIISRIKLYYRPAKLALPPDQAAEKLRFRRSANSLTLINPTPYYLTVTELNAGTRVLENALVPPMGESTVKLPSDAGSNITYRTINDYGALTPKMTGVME
T1 sequence (P08190 24-167, further chain): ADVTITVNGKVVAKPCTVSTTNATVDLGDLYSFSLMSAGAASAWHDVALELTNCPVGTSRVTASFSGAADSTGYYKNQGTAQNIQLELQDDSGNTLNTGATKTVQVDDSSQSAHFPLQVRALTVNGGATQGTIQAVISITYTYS

`O=C(CSc1nnc(-c2ccc(S(=O)(=O)N3CCCC3)cc2)o1)Nc1ccc(Cl)cc1` [AL1, N-(4-chloro-phenyl)-2-{5-[4-(pyrrolidine-1-sulfonyl)-phenyl]-[1,3,4]oxadiazol-2-ylsulfanyl}-acetamide] showed an IC50 of 286 µM.
